As a reminder, the IC50 is the concentration that inhibits the measured activity by half. What is called viability, T/C is the result in the treated group divided by that in the control group, in per cent.

Molecules are shown by their SMILES. Values joined by “and” are separate entries in the source; they are usually repeats but may differ in a detail not shown here. Equal entries are not always repeated.

Our source for the IC50 and viability, T/C values is PubChem BioAssay AID2060614 (Molecular Pharmacology Branch, DTP, NCI, 2025).

The test system of this test is 598228-144-R-J1-PDC complex spheroids, viability. In words: Anticancer human tumor 598228-144-R-J1-PDC patient-derived serous endometrial adenocarcinoma cell line growth inhibition [CLK]. As to conditions: for viability, T/C: stronger effect = lower value. In short, it runs like this: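 Patient-derived tumor cells grown as complex spheroids with HUVEC endothelial cells and mesenchymal stem cells, treated with drug combinations. Concentrations descend in half-log steps from near clinical Cmax, or from 10 microM if Cmax unknown.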

The mark [1] stands for this setting: curve of first compound, second compound 0.0316 µM.
[2] abbreviates: curve of first compound, second compound 0.1 µM.
Setting [3] is: curve of first compound, second compound 0.316 µM.
Where [4] appears, read: curve of first compound, second compound 1 µM.
Where [5] appears, read: curve of first compound, second compound 3.16 µM.
The mark [6] stands for this setting: curve of first compound, second compound 10 µM.
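Further: spheroids exposed to compounds for seven days before readout.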
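Wherever viability, T/C is given: 100% = DMSO vehicle control wells.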

As for `CC(C)CC(NC(=O)C(Cc1ccccc1)NC(=O)c1cnccn1)B(O)O` (configuration not stated) + CN1CCN(c2cc(C(=O)Nc3cc4cc(-c5cnn(C)c5)ccc4cn3)ccn2)CC1, the IC50 runs as follows: under setting [1], 0.00412 µM; under setting [2], 0.00254 µM; under setting [3], under 0.000949 µM; under setting [4], under 0.000949 µM; under setting [5], under 0.000949 µM; under setting [6], under 0.000949 µM. Moreover, the viability, T/C by setting is: (second compound 0.0316 µM, first compound 0.000949 µM) 124%; (second compound 0.0316 µM, first compound 0.003 µM) 68.6%; (second compound 0.0316 µM, first compound 0.00949 µM) 0.89%; (second compound 0.0316 µM, first compound 0.03 µM) 0.39%; (second compound 0.0316 µM, first compound 0.0949 µM) 0.34%; (second compound 0.0316 µM, first compound 0.3 µM) 0.29%. Besides, the viability, T/C was 137% (second compound 0.1 µM, first compound 0.000949 µM); 35.3% (second compound 0.1 µM, first compound 0.003 µM); 0.57% (second compound 0.1 µM, first compound 0.00949 µM); 0.37% (second compound 0.1 µM, first compound 0.03 µM); 0.35% (second compound 0.1 µM, first compound 0.0949 µM); 2.83% (second compound 0.1 µM, first compound 0.3 µM). In addition, the viability, T/C is 19.9% (second compound 0.316 µM, first compound 0.000949 µM); 2.9% (second compound 0.316 µM, first compound 0.003 µM); 0.32% (second compound 0.316 µM, first compound 0.00949 µM); 0.26% (second compound 0.316 µM, first compound 0.03 µM); 0.88% (second compound 0.316 µM, first compound 0.0949 µM); 6.75% (second compound 0.316 µM, first compound 0.3 µM). For the same compound, the viability, T/C by setting is: (second compound 1 µM, first compound 0.000949 µM) 0.79%; (second compound 1 µM, first compound 0.003 µM) 0.61%; (second compound 1 µM, first compound 0.00949 µM) 0.36%; (second compound 1 µM, first compound 0.03 µM) 0.23%; (second compound 1 µM, first compound 0.0949 µM) 1.86%; (second compound 1 µM, first compound 0.3 µM) 4.83%. Also, the viability, T/C is 1.18% (second compound 3.16 µM, first compound 0.000949 µM); 1.87% (second compound 3.16 µM, first compound 0.003 µM); 0.3% (second compound 3.16 µM, first compound 0.00949 µM); 0.21% (second compound 3.16 µM, first compound 0.03 µM); 1.26% (second compound 3.16 µM, first compound 0.0949 µM); 2.5% (second compound 3.16 µM, first compound 0.3 µM). Besides, the viability, T/C was 0.91% (second compound 10 µM, first compound 0.000949 µM); 2.49% (second compound 10 µM, first compound 0.003 µM); 0.22% (second compound 10 µM, first compound 0.00949 µM); 0.2% (second compound 10 µM, first compound 0.03 µM); 3.91% (second compound 10 µM, first compound 0.0949 µM); 3.86% (second compound 10 µM, first compound 0.3 µM).
Regarding `C#Cc1c(F)ccc2cc(O)cc(-c3ncc4c(N5CC6CCC(C5)N6)nc(OCC56CCCN5CC(F)C6)nc4c3F)c12` (configuration not stated), the viability, T/C by setting is: (compound 0.0316 µM) 99.8% and 98.6%; (compound 0.1 µM) 101% and 103%; (compound 0.316 µM) 108% and 112%; (compound 1 µM) 103% and 100%; (compound 3.16 µM) 102% and 103%; (compound 10 µM) 97.9% and 102%. Besides, the IC50 (curve of compound) was over 10 µM.
As to `O=c1[nH]cc(F)c(=O)[nH]1`, the viability, T/C reads like this: (compound 0.0316 µM) 106% and 89.1%; (compound 0.1 µM) 94.6% and 96.1%; (compound 0.316 µM) 101% and 88.6%; (compound 1 µM) 97.6% and 99.6%; (compound 3.16 µM) 99.3% and 88.9%; (compound 10 µM) 74.2% and 77.3%. Moreover, the IC50 (curve of compound) is over 10 µM.
In the case of `Cn1ncnc1[C@H]1c2n[nH]c(=O)c3cc(F)cc(c23)N[C@@H]1c1ccc(F)cc1`, the viability, T/C was 111% and 95.5% (compound 0.000316 µM); 103% and 114% (compound 0.001 µM); 81.5% and 109% (compound 0.00316 µM); 83.8% and 101% (compound 0.01 µM); 95.8% and 103% (compound 0.0316 µM); 76.3% and 84.7% (compound 0.1 µM). Besides, the IC50 (curve of compound) is over 0.1 µM.
In the case of `C=CC(=O)N1CCN(c2nc(=O)n(-c3c(C)ccnc3C(C)C)c3nc(-c4c(O)cccc4F)c(F)cc23)C(C)C1` (configuration not stated), the viability, T/C was 95% and 99.2% (compound 0.0316 µM); 94.5% and 92.9% (compound 0.1 µM); 98.5% and 113% (compound 0.316 µM); 108% and 115% (compound 1 µM); 107% and 117% (compound 3.16 µM); 98% and 109% (compound 10 µM). Where the note is “curve of compound”, the IC50 is over 10 µM.
Turning to `CCCS(=O)(=O)Nc1ccc(F)c(C(=O)c2c[nH]c3ncc(-c4ccc(Cl)cc4)cc23)c1F` + CNC(=O)c1ccc(Nc2nc(OC3CCCC3)c3c(-c4ccc5nc(C)oc5c4)c[nH]c3n2)c(OC)c1, the IC50 is 9.99 µM under setting [1]; over 10 µM under setting [2]; 9.64 µM under setting [3]; over 10 µM under setting [4]; over 10 µM under setting [5]; 9.06 µM under setting [6]. Besides, the viability, T/C reads like this: (second compound 0.0316 µM, first compound 0.0316 µM) 117%; (second compound 0.0316 µM, first compound 0.1 µM) 104%; (second compound 0.0316 µM, first compound 0.316 µM) 113%; (second compound 0.0316 µM, first compound 1 µM) 105%; (second compound 0.0316 µM, first compound 3.16 µM) 93.5%; (second compound 0.0316 µM, first compound 10 µM) 49.5%. Besides, the viability, T/C (second compound 0.1 µM, first compound 0.0316 µM) was 102%; the viability, T/C (second compound 0.1 µM, first compound 0.1 µM) was 101%; the viability, T/C (second compound 0.1 µM, first compound 0.316 µM) is 102%; the viability, T/C (second compound 0.1 µM, first compound 1 µM) was 111%; the viability, T/C (second compound 0.1 µM, first compound 3.16 µM) is 115%; the viability, T/C (second compound 0.1 µM, first compound 10 µM) is 51.6%. For the same compound, the viability, T/C reads like this: (second compound 0.316 µM, first compound 0.0316 µM) 99.4%; (second compound 0.316 µM, first compound 0.1 µM) 105%; (second compound 0.316 µM, first compound 0.316 µM) 87.2%; (second compound 0.316 µM, first compound 1 µM) 100%; (second compound 0.316 µM, first compound 3.16 µM) 83.5%; (second compound 0.316 µM, first compound 10 µM) 48.6%. In addition, the viability, T/C by setting is: (second compound 1 µM, first compound 0.0316 µM) 96.5%; (second compound 1 µM, first compound 0.1 µM) 104%; (second compound 1 µM, first compound 0.316 µM) 94.8%; (second compound 1 µM, first compound 1 µM) 99.3%; (second compound 1 µM, first compound 3.16 µM) 88.4%; (second compound 1 µM, first compound 10 µM) 57.1%. The viability, T/C by setting is: (second compound 3.16 µM, first compound 0.0316 µM) 86.7%; (second compound 3.16 µM, first compound 0.1 µM) 83.9%; (second compound 3.16 µM, first compound 0.316 µM) 91.7%; (second compound 3.16 µM, first compound 1 µM) 102%; (second compound 3.16 µM, first compound 3.16 µM) 83.3%; (second compound 3.16 µM, first compound 10 µM) 55%. In addition, the viability, T/C by setting is: (second compound 10 µM, first compound 0.0316 µM) 89%; (second compound 10 µM, first compound 0.1 µM) 82.5%; (second compound 10 µM, first compound 0.316 µM) 92.5%; (second compound 10 µM, first compound 1 µM) 99.6%; (second compound 10 µM, first compound 3.16 µM) 67.5%; (second compound 10 µM, first compound 10 µM) 48.4%.
